Laboratory results as given in ChEMBL document CHEMBL1201862, “PubChem BioAssay data set” (2004).
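Grown in 96-well plates, cells were treated for 48 hours with each compound at five concentrations. Insufficient inhibition: endpoint recorded as highest concentration tested. GI50 = concentration required for 50% inhibition of growth.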 Calls of active or inactive are those of the source. No stated cut-off is given here; in the data, active = GI50 up to about 1.1 µM and inactive = higher.

Assays:
Experiment in all cases: NCI tumour cell line growth inhibition, 48 h
HL-60 = tested on: HL-60
Hs-578T = tested on: Hs-578T
SW-620 = tested on: SW-620
OVCAR-4 = tested on: OVCAR-4
HCC 2998 = tested on: HCC 2998
RPMI-8226 = tested on: RPMI-8226
SF-268 = tested on: SF-268
HCT-15 = tested on: HCT-15
SF-539 = tested on: SF-539
SF-295 = tested on: SF-295
K562 = tested on: K562
SK-OV-3 = tested on: SK-OV-3
ACHN = tested on: ACHN
LOX IMVI = tested on: LOX IMVI
HOP-62 = tested on: HOP-62
M14 = tested on: M14
COLO 205 = tested on: COLO 205
OVCAR-8 = tested on: OVCAR-8
BT-549 = tested on: BT-549
UACC-62 = tested on: UACC-62

Row | SMILES | GI50 (HL-60) | GI50 (Hs-578T) | GI50 (SW-620) | GI50 (OVCAR-4) | GI50 (HCC 2998) | GI50 (RPMI-8226) | GI50 (SF-268) | GI50 (HCT-15) [µM] | GI50 (SF-539) | GI50 (SF-295) | GI50 (K562) | GI50 (SK-OV-3) | GI50 (ACHN) | GI50 (LOX IMVI) | GI50 (HOP-62) | GI50 (M14) | GI50 (COLO 205) | GI50 (OVCAR-8) | GI50 (BT-549) | GI50 (UACC-62)
1 | O=C1/C(=C/c2ccccc2)N=C2Sc3c([nH]cnc3=O)N12 | 42.3 µM (inactive) | 73.1 µM (inactive) | > 100 µM (inactive) | 35.1 µM (inactive) | > 100 µM (inactive) | > 100 µM (inactive) | > 100 µM (inactive) | 68.9 | > 100 µM (inactive) | > 100 µM (inactive) | 28.2 µM (inactive) | > 100 µM (inactive) | > 100 µM (inactive) | > 100 µM (inactive) | > 100 µM (inactive) | > 100 µM (inactive) | > 100 µM (inactive) | > 100 µM (inactive) |  | 
2 | Cc1cc(O)c(C(c2cccnc2)c2c(O)cc(C)[nH]c2=O)c(=O)[nH]1 | > 100 µM (inactive) | > 100 µM (inactive) |  | > 100 µM (inactive) |  | > 100 µM (inactive) | > 100 µM (inactive) | > 100 |  | > 100 µM (inactive) | > 100 µM (inactive) | > 100 µM (inactive) | > 100 µM (inactive) | > 100 µM (inactive) | > 100 µM (inactive) | > 100 µM (inactive) | > 100 µM (inactive) | > 100 µM (inactive) | > 100 µM (inactive) | > 100 µM (inactive)
3 | c1ccc(C2CC(N3CCOCC3)=Nc3ccccc3N2)cc1 (stereo not drawn) | > 100 µM (inactive) | > 100 µM (inactive) | > 100 µM (inactive) | > 100 µM (inactive) |  | 43.9 µM (inactive) | > 100 µM (inactive) | > 100 | > 100 µM (inactive) | > 100 µM (inactive) | 58.2 µM (inactive) | > 100 µM (inactive) | > 100 µM (inactive) |  | > 100 µM (inactive) | > 100 µM (inactive) | > 100 µM (inactive) | > 100 µM (inactive) | > 100 µM (inactive) | > 100 µM (inactive)
4 | COc1ccc(N2C(=O)C3c4[nH]c5ccccc5c4C4c5ccccc5CC4C3C2=O)cc1 (stereo not drawn) | > 100 µM (inactive) |  | > 100 µM (inactive) | > 100 µM (inactive) | > 100 µM (inactive) |  | > 100 µM (inactive) | > 100 | > 100 µM (inactive) | > 100 µM (inactive) | > 100 µM (inactive) | > 100 µM (inactive) | > 100 µM (inactive) | > 100 µM (inactive) | > 100 µM (inactive) | > 100 µM (inactive) | > 100 µM (inactive) | > 100 µM (inactive) | > 100 µM (inactive) | > 100 µM (inactive)
5 | Cn1c(=O)c2nc(CCNC(=O)c3ccccc3)[nH]c2n(C)c1=O |  | > 100 µM (inactive) | > 100 µM (inactive) | > 100 µM (inactive) | > 100 µM (inactive) |  | > 100 µM (inactive) | > 100 |  | > 100 µM (inactive) | > 100 µM (inactive) |  | > 100 µM (inactive) | > 100 µM (inactive) | > 100 µM (inactive) | > 100 µM (inactive) |  | > 100 µM (inactive) | > 100 µM (inactive) | > 100 µM (inactive)
6 | O=C(c1cccc(F)c1F)N1CCc2c([nH]c3ccccc23)C1c1ccc2c(c1)OCO2 (stereo not drawn) | 3.4 µM (inactive) | 23.8 µM (inactive) | 9.71 µM (inactive) | 11.1 µM (inactive) |  | 8.2 µM (inactive) | 27.3 µM (inactive) | 3.73 | 4.79 µM (inactive) | 3.09 µM (inactive) | 4.22 µM (inactive) | 3.61 µM (inactive) | 18.8 µM (inactive) | 20.2 µM (inactive) | 0.337 µM (active) | 3.85 µM (inactive) | 3.59 µM (inactive) | 31.3 µM (inactive) | 40.3 µM (inactive) | 5.24 µM (inactive)
7 | COc1ccc(C(=O)c2[nH]c(Nc3cc(C)ccn3)c(C(=S)Nc3ccccc3)c2N)cc1 | 24.3 µM (inactive) |  | 25.3 µM (inactive) | 10.9 µM (inactive) | 17.1 µM (inactive) | 13.3 µM (inactive) | 21.9 µM (inactive) | 21.1 | 18.3 µM (inactive) | 17.9 µM (inactive) | 25.1 µM (inactive) | 19.5 µM (inactive) | 30.4 µM (inactive) | 18.7 µM (inactive) | 24.7 µM (inactive) | 20.5 µM (inactive) | 19.4 µM (inactive) | 17.2 µM (inactive) | 19.6 µM (inactive) | 12.9 µM (inactive)
8 | Cc1cccc(Nc2nn3c(=O)c4c5c(sc4nc3s2)CCCC5)c1 | 23.4 µM (inactive) | 6.04 µM (inactive) | 91.2 µM (inactive) | 16 µM (inactive) |  |  | 3.36 µM (inactive) | 6.41 | > 100 µM (inactive) | 3.08 µM (inactive) | 5.09 µM (inactive) | 45.8 µM (inactive) | 7.71 µM (inactive) | 3.33 µM (inactive) | 28.4 µM (inactive) | 3.89 µM (inactive) | 3.69 µM (inactive) | 12.4 µM (inactive) | 25.8 µM (inactive) | 0.647 µM (active)
9 | C=CC1(O)CCCC=C1COCc1ccccc1 (stereo not drawn) | 27.4 µM (inactive) | > 100 µM (inactive) |  | 38.4 µM (inactive) | > 100 µM (inactive) | 23.8 µM (inactive) | 67 µM (inactive) | 65.8 |  | > 100 µM (inactive) | 32.2 µM (inactive) | > 100 µM (inactive) | 56 µM (inactive) | 18.8 µM (inactive) | > 100 µM (inactive) | > 100 µM (inactive) | > 100 µM (inactive) | 53 µM (inactive) |  | > 100 µM (inactive)
10 | CO/N=C\c1ccc2c(c1)Sc1ccccc1O2 | 26.2 µM (inactive) | 30.9 µM (inactive) | 73.8 µM (inactive) | 43.9 µM (inactive) | 45.7 µM (inactive) | 55.7 µM (inactive) | 72.3 µM (inactive) | 28.5 | 40.7 µM (inactive) | 36.3 µM (inactive) | 51.8 µM (inactive) | > 100 µM (inactive) | > 100 µM (inactive) | 53.5 µM (inactive) | > 100 µM (inactive) | 30.5 µM (inactive) | 66.4 µM (inactive) | 95.9 µM (inactive) |  | 71.1 µM (inactive)
11 | CC(C(=O)N1c2ccccc2Sc2ccccc21)N1c2ccccc2Sc2ccccc21 (stereo not drawn) | 77.6 µM (inactive) | > 100 µM (inactive) | > 100 µM (inactive) | > 100 µM (inactive) |  | > 100 µM (inactive) | > 100 µM (inactive) | > 100 | > 100 µM (inactive) | 98.4 µM (inactive) | 84.1 µM (inactive) | > 100 µM (inactive) | > 100 µM (inactive) | > 100 µM (inactive) | > 100 µM (inactive) | > 100 µM (inactive) | 85.7 µM (inactive) | 97.1 µM (inactive) | > 100 µM (inactive) | > 100 µM (inactive)
12 | COc1ccc(-c2c(C#N)c(S)n(NS(=O)(=O)c3ccc(C)cc3)c(=O)c2C#N)cc1 | 11.1 µM (inactive) |  | 18.6 µM (inactive) | 23.7 µM (inactive) | 30.3 µM (inactive) | 3.42 µM (inactive) | 23.4 µM (inactive) | 16 | 14.6 µM (inactive) | 30 µM (inactive) | 18.7 µM (inactive) | 32.8 µM (inactive) | 16.4 µM (inactive) | 13.9 µM (inactive) | 29.6 µM (inactive) | 17.7 µM (inactive) | 18.2 µM (inactive) | 20.2 µM (inactive) | 13.4 µM (inactive) | 15.6 µM (inactive)
13 | Cc1ccc(S(=O)(=O)N/N=C2/CCC(C(C)(C)C)CC2Br)cc1 (stereo not drawn) | 41.9 µM (inactive) | 17.2 µM (inactive) | 23.9 µM (inactive) | 19.5 µM (inactive) |  | 28.4 µM (inactive) | 36.6 µM (inactive) | 34 | 21.2 µM (inactive) | 34.5 µM (inactive) | 19.8 µM (inactive) | 33.8 µM (inactive) | 34.1 µM (inactive) | 16.4 µM (inactive) | 32.4 µM (inactive) | 17.9 µM (inactive) | 27.2 µM (inactive) | 26.4 µM (inactive) | 32.1 µM (inactive) | > 10 µM (inactive)
14 | CCN1CCC(CNC(=O)c2ccc(N)cc2)N1CC (stereo not drawn) | > 100 µM (inactive) | > 100 µM (inactive) | > 100 µM (inactive) | > 100 µM (inactive) | > 100 µM (inactive) | > 100 µM (inactive) | > 100 µM (inactive) | > 100 | > 100 µM (inactive) | > 100 µM (inactive) | > 100 µM (inactive) | > 100 µM (inactive) | > 100 µM (inactive) |  | > 100 µM (inactive) | > 100 µM (inactive) | > 100 µM (inactive) | > 100 µM (inactive) | > 100 µM (inactive) | > 100 µM (inactive)
15 | NC(=O)C[S+]([O-])CC(N)C(=O)O (stereo not drawn) |  | > 100 µM (inactive) | > 100 µM (inactive) | > 100 µM (inactive) | > 100 µM (inactive) |  | > 100 µM (inactive) | > 100 |  | > 100 µM (inactive) | > 100 µM (inactive) |  | > 100 µM (inactive) | > 100 µM (inactive) | > 100 µM (inactive) | > 100 µM (inactive) |  | > 100 µM (inactive) | > 100 µM (inactive) | > 100 µM (inactive)
16 | CN(C)c1n/c(=N/Cc2cccs2)ss1 | 1.35 µM (inactive) | > 10 µM (inactive) | > 10 µM (inactive) | > 10 µM (inactive) | > 10 µM (inactive) | > 3.04 µM (inactive) | > 10 µM (inactive) | > 10 | > 10 µM (inactive) | > 10 µM (inactive) | 3.4 µM (inactive) | > 10 µM (inactive) | > 10 µM (inactive) | > 5.62 µM (inactive) | > 10 µM (inactive) | > 10 µM (inactive) | > 10 µM (inactive) | > 10 µM (inactive) |  | > 10 µM (inactive)
